The values that follow are results of earlier work, collected in US20070031570A1, “Hydrothermically processed compositions containing phytosterols” (Archer-Daniels-Midland Company, priority 2002, published 2007).

Like-named read-outs stand apart in the source and are kept apart here. A value given as a limit tells only on which side of the number the result lay.

Test in data set [1]: not given
The source holds these as a separate data set.

For data set [2] the following is noted: 2.8 g sitostanol/day given as sitostanol ester in margarine.

For neomycin, the “effect on cholesterol absorption” value (orally-administered) was “reduces cholesterol absorption effectively”.
For `CC[C@H](CC[C@@H](C)[C@H]1CC[C@H]2[C@@H]3CC[C@H]4C[C@@H](O)CC[C@]4(C)[C@H]3CC[C@]12C)C(C)C` [sitostanol], for the setting “delivery system which avoids an oil phase ('562 and '776 patents)”, the reduces cholesterol absorption is given as not above 37%. In addition, the “effect on serum cholesterol” value in data set [1] (subjects with moderate hypercholesterolemia, 3 g/day) is “no effect”. Also, the reduced serum cholesterol in data set [1] (subjects with severe hypercholesterolemia, 1.5 g/day) is reported as 15%.
For the compound sitostanol ester, the “less effective at reducing cholesterol absorption compared to the unesterified sterol” value (humans, dissolved in dietary fat) is reported as 21%. Besides, the “reduced LDL cholesterol” value in data set [2] is recorded as 16%.
With `CC[C@H](CC[C@@H](C)[C@H]1CC[C@H]2[C@@H]3CC=C4C[C@@H](O)CC[C@]4(C)[C@H]3CC[C@]12C)C(C)C` [sitosterol], the “decrease serum cholesterol levels” value in data set [1] (dose-response study, 3-9 g/day of powdered sitosterol) is 12%. For the same compound, the reduced serum cholesterol in data set [1] (doses of 5-18 g sitosterol/day) is 16-20%.
